Starred links: 1 amine or outer side, 2 acyl side, 3 side chain; linkers in the order of their positions; H or OH if unused. Non-standard residues stand in square brackets, D forms with d. Residues, ends and D or L forms follow the SMILES beside them. Groups on a side chain read outwards from the residue. *: point of attachment. C18 diacid = O=C(O)CCCCCCCCCCCCCCCCC(=O)*; γGlu = O=C(O)[C@H](CCC(=O)[*:2])N[*:1]; εLys = N[C@@H](CCCCN[*:1])C(=O)[*:2]; Aib = CC(C)(N)C(=O)O
Assays:
[1] = Pharmacokinetic study in minipigs after i.v. administration; conditions: female, Gottingen, minipig, in vivo, iv
Procedure: The purpose of this example is to determine the half-life in vivo of the derivatives of the present invention after i.v. administration to minipigs, i.e. the prolongation of their time in the body and thereby their time of action. This is done in a pharmacokinetic (PK) study, where the terminal half-life of the derivative in question is determined. By terminal half-life is generally meant the period of time it takes to halve a certain plasma concentration, measured after the initial distribution phase.
Female Gottingen minipigs were obtained from Ellegaard Gottingen Minipigs (Dalmose, Denmark) approximately 7-14 months of age and weighing from approximately 16-35 kg were used in the studies. The minipigs were housed individually and fed restrictedly once daily with SDS minipig diet (Special Diets Services, Essex, UK).
After at 3 weeks of acclimatisation two permanent central venous catheters were implanted in vena cava caudalis in each animal. […]
Plasma was pipetted into Micronic tubes on dry ice and kept at −20° C. until analysed for plasma concentration of the compounds using ELISA, or a similar antibody-based assay, or LCMS. Individual plasma concentration-time profiles were analysed by a non-compartmental model in Phoenix WinNonLin ver. […] (Pharsight Inc., Mountain View, Calif., USA), and the resulting terminal half-lives (harmonic mean) determined.

[2] = Pharmacokinetic study in dogs, oral dosing of tablet compositions with SNAC; format: in vivo, Beagle dogs; conditions: male, beagle, dog, in vivo, po
Summary of the method: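 Male beagle dogs (9-17 kg), fasted, received a single oral tablet with 100-300 mg SNAC and 3-4 mg test substance, groups of 6-8.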

Compound: CC[C@H](C)[C@H](NC(=O)[C@H](Cc1ccccc1)NC(=O)[C@H](CCC(=O)O)NC(=O)[C@H](CCCNC(=N)N)NC(=O)[C@H](C)NC(=O)[C@H](C)NC(=O)[C@H](CCC(N)=O)NC(=O)[C@H](CCCCNC(=O)[C@@H](N)CCCCNC(=O)[C@@H](N)CCCCNC(=O)CC[C@H](NC(=O)CCCCCCCCCCCCCCCCC(=O)O)C(=O)O)NC(=O)[C@H](CCC(=O)O)NC(=O)[C@H](CC(C)C)NC(=O)[C@H](CC(C)C)NC(=O)[C@@H](NC(=O)[C@H](CO)NC(=O)[C@H](Cc1ccc(O)cc1)NC(=O)[C@H](CC(=O)O)NC(=O)[C@H](CO)NC(=O)[C@@H](NC(=O)[C@H](Cc1ccccc1)NC(=O)[C@@H](NC(=O)CNC(=O)[C@H](CCC(=O)O)NC(=O)C(C)(C)NC(=O)[C@@H](N)Cc1ccc(O)cc1)[C@@H](C)O)[C@@H](C)O)[C@@H](C)CC)C(=O)N[C@@H](CC(N)=O)C(=O)N[C@@H](Cc1c[nH]c2ccccc12)C(=O)N[C@@H](CC(C)C)C(=O)N[C@@H](CC(C)C)C(=O)N[C@@H](C)C(=O)NCC(=O)NCC(=O)N1CCC[C@H]1C(=O)N[C@@H](CO)C(=O)N[C@@H](CO)C(=O)NCC(=O)N[C@@H](C)C(=O)N1CCC[C@H]1C(=O)N1CCC[C@H]1C(=O)N1CCC[C@H]1C(=O)N[C@@H](CO)C(=O)O [Compound No. 15] (H-Y[Aib]EGTFTSDYSILLEK([εLys-εLys-γGlu-C18 diacid])QAAREFINWLLAGGPSSGAPPPS-OH)
- half-life [1]: 36 h
- Tmax ([2]; Tmax): 1.5 h
- half-life ([2]; t1/2): 59 h

From patent US20230120597A1, “CO-AGONISTS AT GLP-1 AND GIP RECEPTORS SUITABLE FOR ORAL DELIVERY” (Novo Nordisk A/S, priority 2020, published 2023)
